# Target: T1, Glutamate--cysteine ligase catalytic subunit (Homo sapiens, UniProt P48506)
# T1 sequence (P48506 whole entry): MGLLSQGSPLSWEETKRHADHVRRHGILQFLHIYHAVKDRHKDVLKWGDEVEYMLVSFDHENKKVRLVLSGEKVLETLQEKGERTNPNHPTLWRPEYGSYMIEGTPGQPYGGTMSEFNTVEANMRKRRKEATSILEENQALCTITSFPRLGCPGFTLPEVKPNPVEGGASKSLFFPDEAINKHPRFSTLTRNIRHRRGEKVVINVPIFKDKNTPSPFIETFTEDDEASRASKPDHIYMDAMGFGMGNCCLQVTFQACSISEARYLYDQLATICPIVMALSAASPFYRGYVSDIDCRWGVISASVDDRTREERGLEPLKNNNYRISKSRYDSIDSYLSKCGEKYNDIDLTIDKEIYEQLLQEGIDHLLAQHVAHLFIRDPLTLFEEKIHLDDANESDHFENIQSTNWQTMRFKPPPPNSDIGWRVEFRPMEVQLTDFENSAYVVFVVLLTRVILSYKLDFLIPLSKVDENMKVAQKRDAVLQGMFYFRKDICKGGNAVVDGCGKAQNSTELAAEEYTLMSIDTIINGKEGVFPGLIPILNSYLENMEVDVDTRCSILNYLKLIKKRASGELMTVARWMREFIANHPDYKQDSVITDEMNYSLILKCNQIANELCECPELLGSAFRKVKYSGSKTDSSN
# Assay: GCL Enzyme Profiling Assay
# Procedure: Compound in pure DMSO was stamped in assay plates (Greiner black 384-well) or appropriate containers using a D300e digital dispenser (TECAN) and the final DMSO concentration was normalized to 1%. A 5 mL, or in the present case, 5 μL mixture of human recombinant GCL (final concentration: 5 nM) and ATP (final concentration: 0.6 mM) was added and the solution was incubated at room temperature (22° C.) for 1 h. […] The reaction was stopped after 1 h or in the present case, 2 h by addition of 5 mL, or in the present case, 5 μL ADP GLO Reagent (Promega). The resulting solution was incubated for 2 h at room temperature. This was then followed by addition of 5 mL, or in the present case, 5 μL ADP GLO Detection. After incubation at room temperature for 30 min, the plates were read on a plate reader (PheraStar) using a luminescence protocol to quantify the GCL enzyme activity from each reaction solution.
row,IC50 [µM],Structure (SMILES)
1,< 20,"N=S(=O)(CCC(c1ccc(Oc2ccc(Cl)cc2Cl)cc1)C(F)(F)F)CC[C@H](N)C(=O)O (stereo partly drawn) [US20260034094, Compound 318]"
2,< 20,"N=S(=O)(CC[C@H](N)C(=O)O)CCC(O)(c1ccc(-c2ccc(Cl)cc2)cc1)C(F)(F)F (stereo partly drawn) [US20260034094, Compound 431]"
3,< 20,"N=S(=O)(CCC(c1ccc(-c2ccc(Cl)cc2Cl)cc1)C(F)(F)F)CC[C@H](N)C(=O)O (stereo partly drawn) [US20260034094, Compound 269]"
4,< 20,"N=S(=O)(CCC(N1CCN(c2ccc(Cl)cc2Cl)CC1)C(F)(F)F)CC[C@H](N)C(=O)O (stereo partly drawn) [US20260034094, Compound 423]"
5,< 20,"N=S(=O)(CCC(c1ccc(Oc2ccccc2)cc1)C(F)(F)F)CC[C@H](N)C(=O)O (stereo partly drawn) [US20260034094, Compound 316]"
6,< 20,"Cn1ncc(-c2ccc(C(O)(CCS(=N)(=O)CC[C@H](N)C(=O)O)C(F)(F)F)cc2)cc1=O (stereo partly drawn) [US20260034094, Compound 433]"
7,< 20,"N=S(=O)(CCC(c1ccc(-c2cnc(C3CC3)nc2)cc1)C(F)(F)F)CC[C@H](N)C(=O)O (stereo partly drawn) [US20260034094, Compound 252]"
8,< 20,"N=S(=O)(CCC(c1ccc(-c2cnc3[nH]ccc3c2)cc1)C(F)(F)F)CC[C@H](N)C(=O)O (stereo partly drawn) [US20260034094, Compound 253]"
9,< 20,"N=S(=O)(CCC(c1ccc(-c2ccccc2F)cc1)C(F)(F)F)CC[C@H](N)C(=O)O (stereo partly drawn) [US20260034094, Compound 217]"
10,< 20,"N=S(=O)(CC[C@H](N)C(=O)O)CCC(O)(c1cccc(-c2ccccc2)c1)C(F)(F)F (stereo partly drawn) [US20260034094, Compound 435]"
11,< 20,"COc1ccc(-c2ccc(C(CCS(=N)(=O)CC[C@H](N)C(=O)O)C(F)(F)F)cc2)c(Cl)c1 (stereo partly drawn) [US20260034094, Compound 268]"
12,< 20,"N=S(=O)(CCC(c1ccc(-c2ccc3cn[nH]c3c2)cc1)C(F)(F)F)CC[C@H](N)C(=O)O (stereo partly drawn) [US20260034094, Compound 255]"
13,< 20,"Cc1cc(Cl)ccc1-c1ccc(C(O)(CCS(=N)(=O)CC[C@H](N)C(=O)O)C(F)(F)F)cc1 (stereo partly drawn) [US20260034094, Compound 430]"
14,< 20,"C=Cc1ccc(C(CCS(=N)(=O)CC[C@H](N)C(=O)O)C(F)(F)F)cc1 (stereo partly drawn) [US20260034094, Compound 261]"
15,< 20,"Cc1ccccc1-c1ccc(C(CCS(=N)(=O)CC[C@H](N)C(=O)O)C(F)(F)F)cc1 (stereo partly drawn) [US20260034094, Compound 265]"
16,< 20,"N=S(=O)(CCC(c1ccc(-c2ccccc2)cc1Cl)C(F)(F)F)CC[C@H](N)C(=O)O (stereo partly drawn) [US20260034094, Compound 315]"
17,< 20,"COc1ccccc1-c1ccc(C(CCS(=N)(=O)CC[C@H](N)C(=O)O)C(F)(F)F)cc1 (stereo partly drawn) [US20260034094, Compound 264]"
18,< 20,"Cn1cc(-c2ccc(C(O)(CCS(=N)(=O)CC[C@H](N)C(=O)O)C(F)(F)F)nc2)cn1 (stereo partly drawn) [US20260034094, Compound 472]"
19,< 20,"Cc1nc(Cl)ccc1-c1ccc(C(CCS(=N)(=O)CC[C@H](N)C(=O)O)C(F)(F)F)cc1 (stereo partly drawn) [US20260034094, Compound 248]"

row,IC50 [µM],Structure (SMILES)
1,< 20,"Cc1ccc(-c2ccc(C(O)(CCS(=N)(=O)CC[C@H](N)C(=O)O)C(F)(F)F)cc2)c(Cl)c1 (stereo partly drawn) [US20260034094, Compound 432]"
2,< 20,"N=S(=O)(CCC(c1cccc2ccccc12)C(F)(F)F)CC[C@H](N)C(=O)O (stereo partly drawn) [US20260034094, Compound 311]"
3,< 20,"CC(C)(O)c1ccc(C(CCS(=N)(=O)CC[C@H](N)C(=O)O)C(F)(F)F)cc1 (stereo partly drawn) [US20260034094, Compound 263]"
4,< 20,"N=S(=O)(CCC(c1ccc(-c2ccsc2)cc1)C(F)(F)F)CC[C@H](N)C(=O)O (stereo partly drawn) [US20260034094, Compound 257]"
5,< 20,"N=S(=O)(CCC(c1ccc2[nH]nnc2c1)C(F)(F)F)CC[C@H](N)C(=O)O (stereo partly drawn) [US20260034094, Compound 393]"
6,< 20,"N=S(=O)(CCC(CO)C(F)(F)F)CC[C@H](N)C(=O)O (stereo partly drawn) [US20260034094, Compound 320]"
7,< 20,"Cc1cc(Cl)ccc1-c1cnc(C(O)(CCS(=N)(=O)CC[C@H](N)C(=O)O)C(F)(F)F)nc1 (stereo partly drawn) [US20260034094, Compound 474]"
8,< 20,"N=S(=O)(CCC(c1ccc(S(=O)(=O)Cc2ccccc2)cc1)C(F)(F)F)CC[C@H](N)C(=O)O (stereo partly drawn) [US20260034094, Compound 291]"
9,< 20,"Cc1ccc(-c2ccc(C(O)(CCS(=N)(=O)CC[C@H](N)C(=O)O)C(F)(F)F)cc2)c(F)c1 (stereo partly drawn) [US20260034094, Compound 437]"
10,< 20,"N=S(=O)(CCC(c1cccc(-c2cccc(F)c2)c1)C(F)(F)F)CC[C@H](N)C(=O)O (stereo partly drawn) [US20260034094, Compound 287]"
11,< 20,"N=S(=O)(CCC(c1ccccn1)C(F)(F)F)CC[C@H](N)C(=O)O (stereo partly drawn) [US20260034094, Compound 313]"
12,< 20,"N=S(=O)(CCC(c1ccc(-c2ccc(Cl)cc2O)cc1)C(F)(F)F)CC[C@H](N)C(=O)O (stereo partly drawn) [US20260034094, Compound 282]"
13,< 20,"N=S(=O)(CCC(c1ccc(-c2cccc(C(N)=O)c2)cc1)C(F)(F)F)CC[C@H](N)C(=O)O (stereo partly drawn) [US20260034094, Compound 229]"
14,< 20,"N=S(=O)(CCC(c1ccc2[nH]cnc2c1)C(F)(F)F)CC[C@H](N)C(=O)O (stereo partly drawn) [US20260034094, Compound 399]"
15,< 20,"N=S(=O)(CC[C@H](N)C(=O)O)CCC(O)([C@H]1CC[C@@H](c2ccc(Cl)cc2Cl)CC1)C(F)(F)F (stereo partly drawn) [US20260034094, Compound 341]"
16,< 20,"Cc1ccc(-c2cccc(C(CCS(=N)(=O)CC[C@H](N)C(=O)O)C(F)(F)F)c2)c(F)c1 (stereo partly drawn) [US20260034094, Compound 284]"
17,< 20,"N=S(=O)(CCC(c1ccc(-c2ccccc2O)cc1)C(F)(F)F)CC[C@H](N)C(=O)O (stereo partly drawn) [US20260034094, Compound 235]"
18,< 20,"N=S(=O)(CC[C@H](N)C(=O)O)CCC(O)(c1ccc2ccccc2n1)C(F)(F)F (stereo partly drawn) [US20260034094, Compound 373]"
19,< 20,"Cc1cc(C(O)(CCS(=N)(=O)CC[C@H](N)C(=O)O)C(F)(F)F)ccc1-c1ccc(Cl)cc1Cl (stereo partly drawn) [US20260034094, Compound 443]"

# — BindingDB's records for patent US20260034094 (Kojin Therapeutics, 2026)
